Laboratory results published in patent publication US5013722A, “Cholecystokinin analogs for controlling appetite” (Hoffmann-LaRoche Inc., priority 1989, dated 1991).
Where a SMILES comes first, the peptide text is derived from it. [ ]: non-standard residue; d: D form. The star is where a group is joined. Thr(SO3H) = C[C@@H](OS(=O)(=O)O)[C@H](N)C(=O)O; sY = N[C@@H](Cc1ccc(OS(=O)(=O)O)cc1)C(=O)O; N(CH2CH2NHAc)Gly = CC(=O)NCCNCC(=O)O; NMeF = CN[C@@H](Cc1ccccc1)C(=O)O; Nle = CCCC[C@H](N)C(=O)O; For = O=C*

System: Male Sprague-Dawley (CD) rats, food intake
Test: Two-meal feeding assay, intraperitoneal administration
Type: in vivo, rat
Experimental: Male Sprague-Dawley (CD) rats weighing 180-200 grams (Charles River Breeding Laboratories) were acclimated to a 12 h light/dark cycle (6 a.m. to 6 p.m.) in a room kept at 22° C. They were subsequently fasted for two days, weighed, placed in individual cages, and a four-day period of meal training was begun. During this time the rats were given ground laboratory chow (Purina Lab Chow) in jars for one hour from 9:00 a.m. until 10:00 a.m., the jars were removed from 10:00 a.m. to 12:00 p.m., and placed back in the cages from 12:00 until 1:00 p.m. Under this `1-2-1` meal feeding regime most rats learn to eat approximately as much Per day during the two hours they have access to food as rats which have food ad libitum over the entire 24-hour day. On the fourth day, the rats were weighed again, and any which lost more than five grams body weight were excluded from the test. The animals were then distributed into experimental (n=5 to 6) and control groups (n=6-12). but not matched for body weight.
Peptides of the invention were suspended either in saline. if soluble, or in 1% gum arabic, if insoluble, at concentrations of 0 to 320 μg/ml/kg body weight and were administered intraperitonerally 15 min before the first meal on day 5 of meal feeding. The rats were then given their meals as they had been during the previous four days, and the food cups were weighed both before and after each meal to determine food consumption. Food intake was expressed as a mean and standard error of the mean in grams consumed or as a percent of control values for the various groups. The treated groups were compared to the control groups by t-test analysis. […]

[1] = 32 microgm/Kg i.p., 15 min before first meal, mean ± SEM

Compound | Food Intake 1st Meal [1] | Food Intake 2nd Meal (32 microgm/Kg i.p., mean ± SEM) | Food Intake 1st Meal (1 microgm/Kg i.p.) | Food Intake 2nd Meal (1 microgm/Kg i.p.) | Food Intake 1st Meal (3 microgm/Kg i.p.) | Food Intake 2nd Meal (3 microgm/Kg i.p.) | Food Intake 1st Meal (10 microgm/Kg i.p.) | Food Intake 2nd Meal (10 microgm/Kg i.p.) | Food Intake 1st Meal (16 microgm/Kg i.p.) | Food Intake 2nd Meal (16 microgm/Kg i.p.) | Food Intake 1st Meal (320 microgm/Kg i.p.) | Food Intake 2nd Meal (320 microgm/Kg i.p.)
CSCC[C@H](NC(=O)[C@H](Cc1ccc(OS(=O)(=O)O)cc1)NC(=O)CNCCNC(C)=O)C(=O)NCC(=O)N[C@@H](Cc1cn(C=O)c2ccccc12)C(=O)N[C@@H](CCSC)C(=O)N[C@H](C(=O)N(C)[C@@H](Cc1ccccc1)C(N)=O)[C@@H](C)OS(=O)(=O)O [Example 7, Ac-Aeg-Tyr(SO3 H)-Met-Gly-Trp(For)-Met-Thr(SO3 H)-N-methyl-Phe-NH2] (H-[N(CH2CH2NHAc)Gly][sY]MGW(For)M[Thr(SO3H)][NMeF]-NH2) | 17 ± 9 % of Control | 95 ± 16 % of Control | – | – | – | – | – | – | – | – | – | –
CCCC[C@H](NC(=O)[C@H](Cc1ccc(OS(=O)(=O)O)cc1)NC(C)=O)C(=O)NCC(=O)N[C@@H](Cc1c[nH]c2ccccc12)C(=O)N[C@@H](CCCC)C(=O)N[C@H](C(=O)N(C)[C@@H](Cc1ccccc1)C(N)=O)[C@@H](C)OS(=O)(=O)O [Example 13, Ac-Tyr-(SO3 H)-Nle-Gly-Trp-Nle-Thr(SO3 H)-N-methyl-Phe-NH2] (Ac-[sY][Nle]GW[Nle][Thr(SO3H)][NMeF]-NH2) | 21 ± 12 % of Control | 52 ± 13 % of Control | 36 ± 4 % of Control | 71 ± 13 % of Control | 23 ± 13 % of Control | 59 ± 6 % of Control | 13 ± 1 % of Control | 62 ± 8 % of Control | 27 ± 17 % of Control | 45 ± 11 % of Control | – | –
CSCC[C@H](NC(=O)[C@H](Cc1c[nH]c2ccccc12)NC(=O)CNC(=O)[C@H](Cc1ccc(OS(=O)(=O)O)cc1)NC(C)=O)C(=O)N[C@H](C(=O)N(C)[C@@H](Cc1ccccc1)C(N)=O)[C@@H](C)OS(=O)(=O)O [Example 14, Ac-Tyr(SO3 H)-Gly-Trp-Met-Thr(SO3 H)-N-methyl-Phe-NH2] (Ac-[sY]GWM[Thr(SO3H)][NMeF]-NH2) | 36 ± 8 % of Control | 141 ± 9 % of Control | – | – | 86 ± 16 % of Control | 120 % of Control | – | – | – | – | 4 ± 5 % of Control | 121 ± 3 % of Control
